Test results published in PMC9774600, “Oligopeptide Sortase Inhibitor Modulates Staphylococcus aureus Cell Adhesion and Biofilm Formation” (Antibiotics, 2022).
Entries after “also recorded” stand apart in the source; their conditions may differ.

Tests used:
[1] = tested on: S. aureus ATCC 43300 (MRSA) biofilm; experiment: Inhibition of biofilm formation assay; assay type: cell-based, Staphylococcus aureus; details: 24 h
Description: (§1) The assay was performed according to the protocol described by O’Toole, with minor modifications. To evaluate the effect of LPRDA on biofilm formation by the S. aureus ATCC 29213 and S. aureus ATCC 43300 strains, 150 µL of sterile LB broth with 4% glucose containing 12.5–100 µmol/L concentrations of LPRDA was added to four wells of 96-well plates. Then, 50 µL of staphylococcal culture (1 × 10^7 CFU/mL) was added and incubated at 37 °C for 24 h. LB culture broth that was not treated with LPRDA was used as the positive control. After 24 h, the plates were washed with PBS to remove planktonic and dead cells, stained with a 0.1% solution of gentian violet for 20 min, followed by extraction of the bound dye with 96% ethanol. The optical density (OD) of the obtained extracts was measured at 570 nm using a SPECTROstar Nano spectrophotometer.
(§2) The bacterial strains were classified into categories according to the Stepanović criteria. Quantitative calculation of S. aureus CFU in the biofilm formed in the presence of LPRDA and in the control experiments was assessed by inoculation on Columbia agar according to the Koch procedure. Inhibition of biofilm formation was determined according to the Kumari method.

[2] = tested on: S. aureus ATCC 29213 (MSSA) biofilm; experiment: Inhibition of biofilm formation assay; assay type: cell-based, Staphylococcus aureus; details: 100 µmol/L LPRDA
Description: as §1, §2

[3] = tested on: S. aureus ATCC 29213 (MSSA) adhesion to Vero cells; experiment: Adhesion of LPRDA-modified S. aureus to Vero cells; assay type: cell-based, Staphylococcus aureus; details: for AI (adhesion index): control 5.2 ± 0.3; for PI (percentage of infected cells): control 100; for ML (microbial load, AI×PI): control 516.7 ± 31.1
Description: (§3) The influence of LPRDA on staphylococcal adhesive properties was evaluated using preliminary incubation of the studied bacterial strains with LPRDA for 18 h and subsequent microscopic detection of adhesion cases of the modified staphylococci to African green monkey kidney epithelial cells (Vero). The following parameters were determined from the adhesion experiments: adhesion index (AI), defined as the average number of attached bacterial cells per eukaryotic cell; percentage of infected cells (PI), defined as the proportion of Vero cells with bacteria adhered to their surface; microbial load (ML), defined as a product AI×PI; and adhesion inhibition index (AII), defined as the ratio of experimental AI to control.
(§4) Vero cells were seeded in 96-well plates at 25 × 10^3 cells/well and grown overnight. Bacterial cells (S. aureus ATCC 29213 or S. aureus ATCC 43300) were incubated with the oligopeptide LPRDA in the concentration range 12.5–100 µmol/L at 37 °C for 18 h with constant shaking at 100 rpm. Luria–Bertani (LB) medium and untreated bacteria served as a control. After incubation, the bacterial suspension was centrifuged at 10,000× g rpm for 10 min and washed twice with sterile PBS for 5 min at 10,000 rpm. The final bacterial concentrations were adjusted to the OD560 of 0.3 McFarland in sterile saline. Next, the monolayer of Vero cells in the 96-well plates was inoculated with 100 μL of the bacterial suspension with an equal volume of the stock DMEM culture medium and incubated for 1 h. The monolayer was washed three times with phosphate-buffered saline (PBS), followed by fixation with 4% formaldehyde for 60 min. Then, the wells of the plates were washed twice with PBS, dried, and stained with purified gentian violet solution (1%) for 15 min. The dye was removed, and images were captured in […] at 40× using an Evos FL microscope (Thermo Fisher Scientific, Waltham, MA, USA). Images were captured in 4–10 random fields of view at 40-fold magnification using an Evos FL microscope. Images were analyzed using ImageJ Fiji software v1.53c.

[4] = tested on: S. aureus ATCC 43300 (MRSA) adhesion to Vero cells; experiment: Adhesion of LPRDA-modified S. aureus to Vero cells; assay type: cell-based, Staphylococcus aureus; details: for AI (adhesion index) / PI (percentage of infected cells) / ML (microbial load, AI×PI): 18 h pre-incubation; for AI (adhesion index): control 7.6 ± 0.1; for PI (percentage of infected cells): control 100; for ML (microbial load, AI×PI): control 755.9 ± 10.6
Description: as §3, §4

[5] = assay type: physicochemical
Description: The pentapeptide LPRDA was synthesized using the solid-phase peptide 9-fluorenylmethoxycarbonyl chemistry method. […] HRMS (ESI, m/z): [M + H]^+ calculated for C24H42N8O8, 571.3204; found, 571.3188.

[6] = tested on: community-associated MRSA strain USA300; details: 25 µmol/L LPRDA, compared with srtA mutants; cited from earlier work
Description: Wang et al. studied the community-associated MRSA strain USA300 and its srtA mutants in a biofilm formation assay. […] We studied the influence of LPRDA at concentrations of 12.5 to 100 µmol/L on biofilm production by the MSSA and MRSA strains used in this adhesion experiment. We observed a concentration-dependent decrease in the amount of biofilm formed by the S. aureus ATCC 29213 (MSSA) strain when it was incubated with increasing concentrations of LPRDA (F ...

S. aureus SrtA = details: read-out: IC50 inhibition of the recombinant enzyme; cited from earlier work
S. aureus = details: cited from earlier work
Description: This concentration is at least eight times higher than those used for inducing antiadhesive effects, which is consistent with the LPRDA MIC > 200 µmol/L reported in [18]. A lack of bactericidal activity is an essential property for antivirulence therapeutics. The following experiments have found differ ...

[7] = tested on: S. aureus-induced mastitis; details: mouse model; cited from earlier work
Description: Only a few SrtA inhibitors have been evaluated in vivo, and so far, none have advanced to clinical trials, which would necessitate an actual efficacy evaluation and follow-up of the in-depth studies of these compounds [17]. […] Due to our interest in the development of novel antibacterials with antiadhesive mechanisms of action, we selected a reference compound with ...

[8] = MSSA pre-incubated 18 h with 100 µmol/L LPRDA, then 1 h with Vero cells, mean ± SD
[9] = MSSA, 12.5 µmol/L LPRDA, 18 h pre-incubation
[10] = MSSA, 25 µmol/L LPRDA, 18 h pre-incubation, mean ± SD
[11] = MSSA, 50 µmol/L LPRDA, 18 h pre-incubation, mean ± SD
[12] = MSSA, 100 µmol/L LPRDA, p = 0.021
[13] = highest studied LPRDA concentration (100 µmol/L), p = 0.01

Leu-Pro-Arg-Asp-Ala [LPRDA]
Decrease in biofilm formation (biomass) ([1]; 100 µmol/L LPRDA (maximum decrease), gentian violet OD 570 nm): 12%
Number of sessile bacteria versus control ([1]; 12.5–100 µmol/L LPRDA): No significant difference
Number of sessile bacterial cells in biofilm ([2]; 24 h, control 5 × 10^6 CFU/mL, inoculation on Columbia agar): 5 × 10^5 CFU/mL
Reduction in biofilm ([2]; 24 h, gentian violet OD 570 nm): 44%
Decrease in sessile cell bacteria number ([2]; 24 h incubation): 10 fold
AI (adhesion index) [3, 8]: 3.4 ± 0.4; 0.021
PI (percentage of infected cells) [3, 8]: 84.0 ± 2.8; 0.021%
ML (microbial load, AI×PI) [3, 8]: 286.9 ± 38.8; 0.009
AI (adhesion index) [3, 9]: 5.4; 0.53
PI (percentage of infected cells) [3, 9]: 100; 0.53%
ML (microbial load, AI×PI) [3, 9]: 542.9; 0.53
AI (adhesion index) [3, 10]: 4.8 ± 0.2; 0.43
PI (percentage of infected cells) [3, 10]: 99.0 ± 0.8; 0.373%
ML (microbial load, AI×PI) [3, 10]: 471.1 ± 26.5; 0.414
AII (adhesion inhibition index, ratio of experimental AI to control) ([3]; MSSA, 50 µmol/L LPRDA): 55.8%
AI (adhesion index) [3, 11]: 2.9 ± 0.2; 0.01
PI (percentage of infected cells) [3, 11]: 85.0 ± 4.6; 0.054%
ML (microbial load, AI×PI) [3, 11]: 240.8 ± 9.2; 0.002
AII (adhesion inhibition index, ratio of experimental AI to control) ([3]; MSSA, 100 µmol/L LPRDA): 65.4%
AI reduction ([3]; MSSA, 100 µmol/L LPRDA, 1 h incubation with Vero cells): 1.5 times
ML decrease relative to the control ([3]; MSSA, 100 µmol/L LPRDA, p = 0.009): 45%
AI decrease relative to the control [3, 12]: 34.6%
PI decrease relative to the control [3, 12]: 16%
Antiadhesive effect ([3]; MSSA, LPRDA concentrations below 50 µmol/L): did not have a notable antiadhesive effect
AI (adhesion index) ([4]; 12.5 µmol/L LPRDA): 7.9; 0.056
PI (percentage of infected cells) ([4]; 12.5 µmol/L LPRDA): 100; – %
ML (microbial load, AI×PI) ([4]; 12.5 µmol/L LPRDA): 790.2; 0.056
PI (percentage of infected cells) ([4]; 25 µmol/L LPRDA): 100; – %
AI (adhesion index) ([4]; 25 µmol/L LPRDA, mean ± SD): 7.4 ± 0.1; 0.516
ML (microbial load, AI×PI) ([4]; 25 µmol/L LPRDA, mean ± SD): 744.2 ± 8.3; 0.516
PI (percentage of infected cells) ([4]; 50 µmol/L LPRDA): 100; – %
AI (adhesion index) ([4]; 50 µmol/L LPRDA, mean ± SD): 7.3 ± 0.2; 0.332
ML (microbial load, AI×PI) ([4]; 50 µmol/L LPRDA, mean ± SD): 727.4 ± 18.2; 0.33
PI (percentage of infected cells) ([4]; 100 µmol/L LPRDA): 100; – %
ML (microbial load, AI×PI) ([4]; 100 µmol/L LPRDA, mean ± SD): 679.2 ± 13.6; 0.01
AI (adhesion index) ([4]; 100 µmol/L LPRDA, then 1 h with Vero cells, mean ± SD): 6.8 ± 0.1; 0.01
Antiadhesive effect ([4]; 12.5–100 µmol/L LPRDA): did not induce an appreciable antiadhesive effect; also recorded: did not induce a significant antiadhesive effect
AI lower than the control [4, 13]: approximately 10%
ML lower than the control [4, 13]: approximately 10%
Solubility [5]: soluble in water
Biofilm formation [6]: attenuated biofilm formation to the level of knocked out bacteria
IC50 (S. aureus SrtA): 10.6 µM
MIC (S. aureus): > 200 µmol/L
Protection against S. aureus-induced mastitis [7]: demonstrated protection against S. aureus-induced mastitis
